The source of these data is article PMC4547362 (Molecular cancer therapeutics, 2015).

Read-outs that look alike come from different tables or passages of the source.

One assay relates to Stat5a/b. The experiment in a line: Stat5a/b activation and transcriptional activity, side-by-side with IST5-002. The assay is classed as cell-based.
For another assay, the target named is Stat3 (Homo sapiens, UniProt P40763). Description: IL-6-induced Stat3 nuclear translocation in DU145 cells, immunofluorescence. Conditions: IL-6 5 nM, IST5-002 even at 50 μM. Type of assay: cell-based.
Stat3, sequence (P40763 whole entry): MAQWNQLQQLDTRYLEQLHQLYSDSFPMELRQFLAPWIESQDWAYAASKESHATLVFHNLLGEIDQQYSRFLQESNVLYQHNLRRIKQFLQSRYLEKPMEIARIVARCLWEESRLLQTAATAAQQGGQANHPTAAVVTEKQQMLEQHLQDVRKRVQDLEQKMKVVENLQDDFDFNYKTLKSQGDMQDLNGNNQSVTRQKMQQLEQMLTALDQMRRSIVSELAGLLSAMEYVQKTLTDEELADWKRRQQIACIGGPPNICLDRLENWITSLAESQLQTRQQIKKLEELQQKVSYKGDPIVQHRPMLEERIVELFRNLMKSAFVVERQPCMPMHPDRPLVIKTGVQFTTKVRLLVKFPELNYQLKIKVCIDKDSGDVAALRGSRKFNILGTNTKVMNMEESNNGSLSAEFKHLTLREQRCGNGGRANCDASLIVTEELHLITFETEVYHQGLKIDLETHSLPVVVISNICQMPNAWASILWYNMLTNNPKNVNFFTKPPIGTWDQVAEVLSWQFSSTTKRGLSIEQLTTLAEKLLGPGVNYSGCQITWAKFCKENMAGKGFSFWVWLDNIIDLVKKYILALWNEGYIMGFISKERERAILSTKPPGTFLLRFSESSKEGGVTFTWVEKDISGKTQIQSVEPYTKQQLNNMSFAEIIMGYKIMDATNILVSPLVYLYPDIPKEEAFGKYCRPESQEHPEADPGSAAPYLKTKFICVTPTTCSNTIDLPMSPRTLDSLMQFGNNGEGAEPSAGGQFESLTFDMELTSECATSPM
In another assay the test system is Stat1. Conditions: cited from earlier work.
The subject of another assay is Stat5. Conditions: cited from earlier work.
Setting [1] is: side-by-side with IST5-002, data not shown.

Turning to `Nc1nc2c(ncn2[C@@H]2O[C@H](COP(=O)(O)O)[C@@H](O)[C@H]2O)c(=O)[nH]1` [GMP], the “effect on Stat5a/b activation and transcriptional activity” value (“effect” for short) with Stat5a/b (setting [1]) is given as “no effect”.
On to `Nc1ncnc2c1ncn2[C@@H]1O[C@@H]2COP(=O)(O)O[C@H]2[C@H]1O` [cyclic AMP], for which the “effect” value in the assay on Stat5a/b is “no effect”.
For the compound `Cc1cc(Nc2nc(N[C@@H](C)c3ncc(F)cn3)ncc2Cl)n[nH]1` [AZD1480, reference compound], on Stat3, the Stat3 nuclear translocation result is “effectively suppressed”.
As for `Nc1nc(F)nc2c1ncn2[C@@H]1O[C@H](CO)[C@@H](O)[C@@H]1O` [Fludarabine, fludarabine], the “Stat1 phosphorylation and activation” value in the assay with Stat1 is “inhibit”. In the assay on Stat5, the Stat5 activity entry is “not affecting”.
Consider `Nc1ncnc2c1ncn2[C@@H]1O[C@H](COP(=O)(O)O)[C@@H](O)[C@H]1O` [AMP], for which the “effect” value in the assay with Stat5a/b (setting [1]) is “no effect”.
